This note sets out measurements from US20080269526A1, “METHODS OF MAKING AN […]” (SAIC […], IP B.V., priority 2004, published 2008).

This data set in a line: Solubility of K Rimar in water. Particulars: 20° C. (RT). The source says: The solubility of the potassium salt of perfluorobutanesulfonic acid, K Rimar, is described in Table 2.

Consider `O=S(=O)([O-])C(F)(F)C(F)(F)C(F)(F)C(F)(F)F.[K+]` [K Rimar, Perfluorobutane sulfonate, potassium salt], for which the “Concentration at which K Rimar is soluble” value is recorded as “less than 0.5 g”.
